“Also recorded” adds a separate entry of the source.
Tested on: experimental autoimmune encephalomyelitis (EAE) mice
Test: EAE model of MS, disease score, treatment from day of disease onset (score >1)
Assay type: in vivo, C57BL/6 mice
Protocol: Experimental detail: EAE was induced in female C57BL/6 mice as described in Example 1. On the day of disease onset (score >1, dotted line), mice were started on daily treatment with vehicle only (Veh) or nalmefene (NaIM) at 0.1, 0.03, 0.01, or 0.003 mg/kg by i.p. injection. […]
Experimental detail: EAE was induced in female C57BL/6 mice as described in Example 1. On the day of disease onset (score >1, dotted line), mice were treated with vehicle only (daily), nalmefene (0.01 mg/kg by i.p. injection daily), the KOR antagonist norBNI (10 mg/kg by i.p. injection weekly), both nalmefene and norBNI, or the MOR antagonist BFNA (10 mg/kg by i.p. injection weekly).
Experimental detail: EAE was induced in female C57BL/6 mice as described in Example 1. On the day of disease onset (score >1, dotted line), mice were treated with vehicle only (daily), nalmefene (0.01 mg/kg by i.p. injection daily), the KOR antagonist norBNI (10 mg/kg by i.p. injection weekly), both nalmefene and norBNI, or the MOR antagonist BFNA (10 mg/kg by i.p. injection weekly). The peak disease score during the first EAE episode was recorded, and mice were considered recovered if they received a score <0.5 by day 23 post treatment initiation.
Experimental detail: EAE was induced in female C57BL/6 mice as described in Example 1.

CN1CCC[C@@H]1CCO[C@](C)(c1ccccc1)c1ccc(Cl)cc1 [clemastine fumerate]
number of days in recovery (sustained recovery) (nalmefene 0.01 mg/kg i.p. daily, clemastine fumerate 10 mg/kg i.p.): recovery is not sustained

Oc1ccc2c3c1O[C@H]1c4[nH]c5c(c4C[C@@]4(O)[C@@H](C2)N(CC2CC2)CC[C@]314)C[C@@]1(O)[C@H]2Cc3ccc(O)c4c3[C@@]1(CCN2CC1CC1)[C@H]5O4 [norBNI]
effect on nalmefene-mediated recovery from paralysis (norBNI 10 mg/kg i.p. weekly with nalmefene 0.01 mg/kg i.p. daily): abolishes the ability of nalmefene to enable full recovery from paralysis; also recorded: abolishes the ability of nalmefene to enable and sustain recovery from paralysis

COC(=O)/C=C/C(=O)N[C@@H]1CC[C@@]2(O)[C@H]3Cc4ccc(O)c5c4[C@@]2(CCN3CC2CC2)[C@H]1O5 [BFNA]
recovery from paralysis (disease score) (10 mg/kg i.p. weekly from disease onset): does not enable recovery
